Converted amounts (≈) assume the structure as drawn. The source made the active and inactive calls. The calls are words filed in the database; no cut-off is given here.
Legend:
[1] = Inhibition of IMP-1 (unknown origin) using FC5 as substrate preincubated for 10 mins followed by substrate addition and measured immediately by fluorescence based analysis; set-up: species or system Bacteria
[2] = Inhibition of VIM-1 (unknown origin) using FC5 as substrate preincubated for 10 mins followed by substrate addition and measured immediately by fluorescence based analysis; set-up: species or system Bacteria
[3] = target: Metallo-beta-lactamase type 2 (Bacteria) (UniProt C7C422); experiment: Induction of thermal stabilization of NDM-1 (unknown origin) assessed as increase in melting temperature by differential scanning fluorimetry analysis; conditions: dose 3.12-50 µM
Sequence of Metallo-beta-lactamase type 2 (Bacteria) (C7C422 whole entry): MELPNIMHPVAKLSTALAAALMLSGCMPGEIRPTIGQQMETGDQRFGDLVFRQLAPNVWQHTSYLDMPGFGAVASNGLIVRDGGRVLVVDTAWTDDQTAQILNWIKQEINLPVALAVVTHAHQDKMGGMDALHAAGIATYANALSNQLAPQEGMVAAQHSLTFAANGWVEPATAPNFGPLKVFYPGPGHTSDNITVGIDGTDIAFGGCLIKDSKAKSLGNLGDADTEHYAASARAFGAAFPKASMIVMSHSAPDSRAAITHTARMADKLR

[4] = target: Metallo-beta-lactamase type 2 (Bacteria) (UniProt C7C422); experiment: Induction of thermal stabilization of NDM-1 (unknown origin) assessed as melting temperature at 3.12 uM by differential scanning fluorimetry analysis
[5] = test system: Klebsiella pneumoniae; experiment: Synergistic antibacterial activity against carbapenem-resistant Klebsiella pneumoniae BAA-2473 assessed as reduction in microbial growth at 0.5 ug/ml measured after 16 to 18 hrs in presence of meropenem by microbial dilution method; type: functional; conditions: dose 0.5 µg/ml, time 16-18 hrs
[6] = test system: Klebsiella pneumoniae subsp. pneumoniae; experiment: Synergistic antibacterial activity against carbapenem-resistant Klebsiella pneumoniae subsp. pneumoniae BAA-2472 assessed as reduction in microbial growth at 0.5 ug/ml measured after 16 to 18 hrs in presence of meropenem by microbial dilution method; type: functional; conditions: dose 0.5 µg/ml, time 16-18 hrs
[7] = test system: Klebsiella pneumoniae subsp. pneumoniae; experiment: Synergistic antibacterial activity against carbapenem-resistant Klebsiella pneumoniae BAA-2472 assessed as reduction in microbial growth at 16 ug/ml measured after 16 to 18 hrs in presence of meropenem by microbial dilution method; type: functional; conditions: dose 16 µg/ml, time 16-18 hrs
[8] = test system: Escherichia coli; experiment: Synergistic antibacterial activity against carbapenem-resistant Escherichia coli BAA-2471 assessed as reduction in microbial growth at 0.5 ug/ml measured after 16 to 18 hrs in presence of meropenem by microbial dilution method; type: functional; conditions: dose 0.5 µg/ml, time 16-18 hrs
[9] = test system: Escherichia coli; experiment: Synergistic antibacterial activity against carbapenem-resistant Escherichia coli BAA-2471 assessed as reduction in microbial growth at 16 ug/ml measured after 16 to 18 hrs in presence of meropenem by microbial dilution method; type: functional; conditions: dose 16 µg/ml, time 16-18 hrs
[10] = test system: Klebsiella pneumoniae subsp. pneumoniae; experiment: Synergistic antibacterial activity against carbapenem-resistant Klebsiella pneumoniae subsp. pneumoniae BAA-2470 assessed as reduction in microbial growth at 8 ug/ml measured after 16 to 18 hrs in presence of meropenem by microbial dilution method; type: functional; conditions: dose 8 µg/ml, time 16-18 hrs
[11] = test system: Escherichia coli; experiment: Synergistic antibacterial activity against carbapenem-resistant Escherichia coli BAA-2469 assessed as reduction in microbial growth at 0.5 ug/ml measured after 16 to 18 hrs in presence of meropenem by microbial dilution method; type: functional; conditions: dose 0.5 µg/ml, time 16-18 hrs
[12] = test system: Escherichia coli; experiment: Synergistic antibacterial activity against carbapenem-resistant Escherichia coli BAA-2469 assessed as reduction in microbial growth at 16 ug/ml measured after 16 to 18 hrs in presence of meropenem by microbial dilution method; type: functional; conditions: dose 16 µg/ml, time 16-18 hrs
[13] = test system: Enterobacter cloacae; experiment: Synergistic antibacterial activity against carbapenem-resistant Enterobacter cloacae BAA-2468 assessed as reduction in microbial growth at 8 ug/ml measured after 16 to 18 hrs in presence of meropenem by microbial dilution method; type: functional; conditions: dose 8 µg/ml, time 16-18 hrs
[14] = test system: Klebsiella pneumoniae; experiment: Synergistic antibacterial activity against carbapenem-resistant Klebsiella pneumoniae BAA-2473 assessed as reduction in microbial growth at 8 ug/ml measured after 16 to 18 hrs in presence of imipenem by microbial dilution method; type: functional; conditions: dose 8 µg/ml, time 16-18 hrs
[15] = test system: Klebsiella pneumoniae; experiment: Synergistic antibacterial activity against carbapenem-resistant Klebsiella pneumoniae BAA-2473 assessed as reduction in microbial growth at 16 ug/ml measured after 16 to 18 hrs in presence of imipenem by microbial dilution method; type: functional; conditions: dose 16 µg/ml, time 16-18 hrs
[16] = test system: Klebsiella pneumoniae subsp. pneumoniae; experiment: Synergistic antibacterial activity against carbapenem-resistant Klebsiella pneumoniae BAA-2472 assessed as reduction in microbial growth at 16 ug/ml measured after 16 to 18 hrs in presence of imipenem by microbial dilution method; type: functional; conditions: dose 16 µg/ml, time 16-18 hrs
[17] = test system: Escherichia coli; experiment: Synergistic antibacterial activity against carbapenem-resistant Escherichia coli BAA-2471 assessed as reduction in microbial growth at 8 ug/ml measured after 16 to 18 hrs in presence of imipenem by microbial dilution method; type: functional; conditions: dose 8 µg/ml, time 16-18 hrs
[18] = test system: Enterobacter cloacae; experiment: Synergistic antibacterial activity against carbapenem-resistant Enterobacter cloacae BAA-2468 assessed as reduction in microbial growth at 16 ug/ml measured after 16 to 18 hrs in presence of imipenem by microbial dilution method; type: functional; conditions: dose 16 µg/ml, time 16-18 hrs
[19] = test system: Escherichia coli; experiment: Synergistic antibacterial activity against carbapenem-resistant Escherichia coli 567975 assessed as reduction in microbial growth at 16 ug/ml measured after 16 to 18 hrs in presence of meropenem by microbial dilution method; type: functional; conditions: dose 16 µg/ml, time 16-18 hrs
[20] = test system: Escherichia coli; experiment: Synergistic antibacterial activity against carbapenem-resistant Escherichia coli 565988 assessed as reduction in microbial growth at 16 ug/ml measured after 16 to 18 hrs in presence of meropenem by microbial dilution method; type: functional; conditions: dose 16 µg/ml, time 16-18 hrs
[21] = test system: Klebsiella pneumoniae; experiment: Synergistic antibacterial activity against carbapenem-resistant Klebsiella pneumoniae 552439 assessed as reduction in microbial growth at 4 ug/ml measured after 16 to 18 hrs in presence of meropenem by microbial dilution method; type: functional; conditions: dose 4 µg/ml, time 16-18 hrs
[22] = test system: Klebsiella pneumoniae; experiment: Synergistic antibacterial activity against carbapenem-resistant Klebsiella pneumoniae 538961 assessed as reduction in microbial growth at 16 ug/ml measured after 16 to 18 hrs in presence of meropenem by microbial dilution method; type: functional; conditions: dose 16 µg/ml, time 16-18 hrs
[23] = test system: Klebsiella pneumoniae; experiment: Synergistic antibacterial activity against carbapenem-resistant Klebsiella pneumoniae 571278 assessed as reduction in microbial growth at 4 ug/ml measured after 16 to 18 hrs in presence of imipenem by microbial dilution method; type: functional; conditions: dose 4 µg/ml, time 16-18 hrs
[24] = test system: Klebsiella pneumoniae; experiment: Synergistic antibacterial activity against carbapenem-resistant Klebsiella pneumoniae 565345 assessed as reduction in microbial growth at 16 ug/ml measured after 16 to 18 hrs in presence of imipenem by microbial dilution method; type: functional; conditions: dose 16 µg/ml, time 16-18 hrs
[25] = test system: Klebsiella pneumoniae; experiment: Synergistic antibacterial activity against carbapenem-resistant Klebsiella pneumoniae 552439 assessed as reduction in microbial growth at 16 ug/ml measured after 16 to 18 hrs in presence of imipenem by microbial dilution method; type: functional; conditions: dose 16 µg/ml, time 16-18 hrs
[26] = test system: Klebsiella pneumoniae; experiment: Synergistic antibacterial activity against carbapenem-resistant Klebsiella pneumoniae 538961 assessed as reduction in microbial growth at 16 ug/ml measured after 16 to 18 hrs in presence of imipenem by microbial dilution method; type: functional; conditions: dose 16 µg/ml, time 16-18 hrs
[27] = Octanol/aqueous buffer distribution coefficient, log D of the compound at pH 7.4 incubated for 4 hrs under shaking condition by HPLC analysis; type: physicochemical
[28] = Kinetic solubility of the compound in PBS buffer at pH 7.4 measured after 24 hrs by HPLC analysis; type: physicochemical; conditions: read-out: Kinetic_solubility
[29] = Plasma protein binding in human assessed as unbound fraction at 10 uM measured after 5 hrs by LC-MS/MS analysis; type: ADME, cell-free
[30] = Metabolic stability in mouse liver microsomes assessed as parent compound remaining at 1 uM measured at 60 mins in presence of NADPH by LC-MS/MS analysis; type: ADME, Microsome; conditions: read-out: Stability
[31] = Metabolic stability in human liver microsomes assessed as intrinsic clearance at 1 uM preincubated for 5 mins followed by NADPH addition and measured up to 60 mins by LC-MS/MS analysis; type: ADME, Microsome; conditions: time < 65 min, read-out: CLH
[32] = test system: HepG2; experiment: Cytotoxicity in human HepG2 cells assessed as inhibition of cell growth measured after 24 hrs by MTT assay; type: functional, cell-based; conditions: HepG2, 24 h

SMILES: COc1ccc(Cl)cc1-c1c(C(=O)O)[nH]c2c1CCc1ccccc1-2
- IC50 [1]: 14 nM
- IC50 [2]: 21 nM
- Activity [3]: Active
- Tm [4]: 14 °C
- MIC [5]: > 64 µg/mL
- MIC [6]: > 64 µg/mL
- MIC [7]: 32 µg/mL
- MIC [8]: 64 µg/mL
- MIC [9]: 16 µg/mL
- MIC [10]: 8 µg/mL
- MIC [11]: 16 µg/mL
- MIC [12]: 2 µg/mL
- MIC [13]: 8 µg/mL
- MIC [14]: 16 µg/mL
- MIC [15]: 8 µg/mL
- MIC [16]: 8 µg/mL
- MIC [17]: 16 µg/mL
- MIC [18]: 32 µg/mL
- MIC [19]: < 0.5 µg/mL
- MIC [20]: < 0.5 µg/mL
- MIC [21]: 16 µg/mL
- MIC [22]: 4 µg/mL
- MIC [23]: 8 µg/mL
- MIC [24]: 8 µg/mL
- MIC [25]: 1 µg/mL
- MIC [26]: 2 µg/mL
- logD at 4 h [27]: 2.58
- solubility kinetic at 24 h [28]: 19.7 µg/mL (≈ 55.7 µM)
- fraction unbound at 5 h, 10 µM [29]: 0.992
- remaining at 1 h, 1 µM [30]: 44.2%
- microsomal CLint at 1 µM [31]: 9.8 µL/min/mg
- IC50 [32]: > 400 µM

From ChEMBL document CHEMBL6109129, “Discovery of Conformationally Constrained Dihydro Benzo-Indole Derivatives as Metallo-β-Lactamase Inhibitors to Tackle Multidrug-Resistant Bacterial Infections” (J Med Chem, 2025)
